In one experiment the test system is SK-MEL melanoma cells. Description: MTT assay, growth of SK-MEL cells treated with CGEN-CL1. The class given is cell-based. How it is done:
(§1) CGEN-CL1 as synthesized in Example 1 was analyzed for its ability to induce growth arrest in various cancer cell lines, such as: breast cancer cell line MCF-7 (Adenocarcinoma, Breast, HTB-22, ATCC), PC3 (Adenocarcinoma, Prostate, CRL-1435, ATCC), A549 (carcinoma, Lung, CCL-185, ATCC), HT-29 (Colorectal Adenocarcinoma, Colon, HTB-38, ATCC) and SK-mel 5 (Melanoma, Skin, HTB70, ATCC).
SK-MEL 5 cells were seeded at 10,000 cells per well in 150 μl of media (DMEM medium+5% FBS) in a 96 well plate.
(§2) CGEN-CL1 (1 mg dissolved in 2500 of Sodium bi-carbonate to a stock concentration of 4 mg/ml) was added to the wells in 500 of medium (final volume of 2000) as detailed in Table 2. The relative growth was normalized to controls where CGEN-CL1 was not added to wells.
(§3) 20 μl of MTT (3-(4,5-Dimethyl-2-thiazolyl)-2,5-diphenyl-2H-tetrazolium bromide) solution (Sigma Cat#M5655, lot#085k5322, 1 gr was dissolved in 200 ml H2O and filtered, giving a final concentration of 5 mg/ml) was added to each well and incubated for 4 hours at 37° C. after which the medium was vacuumed and 100 μl of DMSO was added to each well. Absorbance was measured in an ELISA reader at 492 nm.
(Tetrazolium dyes change colour on reduction, which living cells bring about.)

Experiment [1] relates to HT29 colorectal adenocarcinoma cells. Description: MTT assay, growth of HT29 cells treated with CGEN-CL1. The experiment is classed as cell-based. How it is done: as §1
HT29 cells were seeded at 10,000 cells per well in 150 μl of media (DMEM medium+5% FBS) in a 96 well plate.
as §2, §3

For experiment [2], the system named is prostate adenocarcinoma cell line PC3. Description: MTT assay, CGEN-CL1 and/or paclitaxel on PC3 cells. The experiment is classed as cell-based. How it is done:
as §3
(§4) A549, PC3 and MCF7 cells were seeded at 6000, 8000 and 10,000 cells per well respectively in 150 μl of media (DMEM medium+5% FBS) in 96 well plates.
(§5) Paclitaxel (Sigma T7402, Lot. 036k1217, Mw 853.9, 5 mg dissolved in 585 μl DMSO to a stock concentration of 10 mM, stored at −20° C.) and/or CGEN-CL1 (1 mg dissolved in 250 μl of sodium bi-carbonate to a stock concentration of 4 mg/ml) were added to the wells in 25 μl of medium (final volume of 200 μl) as detailed in Table 3. The relative growth was normalized to controls where neither paclitaxel nor CGEN-CL1 was added to wells.
(§6) An MTT assay was performed as described above in Example 2.

In a further experiment the test system is PC3 cells. The conditions noted are these: MTT.
Experiment [3] deals with A549 human non-small cell lung cancer cells.
Procedure: A549 cells were seeded at 6000 cells per well in 150 μl of media (DMEM medium+5% FBS) in a 96 well plate.
Experiment [4] deals with lung carcinoma cell line A549. Description: MTT assay, CGEN-CL1 and/or paclitaxel on A549 cells. The experiment is classed as cell-based, human. How it is done: as §3, §4, §5, §6
Experiment [5] has as its system cleaved PARP in PC3 cells. Description: Detection of cleaved PARP by Western blot in PC3 cells. The experiment is classed as cell-based. How it is done:
Apoptosis was analyzed either by cell cycle analysis or by PARP cleavage estimation. The amount of cleaved PARP is proportional to the amount of cells undergoing apoptosis (see for example Boulares A. H., et al., 1999, JBC 274:22932-22940).
FIG. 3 presents results of detection of cleaved PARP in PC3 cells treated with CGEN-CL1 combined with or without Paclitaxel. PC3 cells were treated with CGEN-CL1 (SEQ ID NO:1), alone or in combination with Paclitaxel, for 48, 72 and 96 hours. Cleaved PARP was detected in cell lysates by Western blot analysis. […] Elevation of the amount of cleaved PARP indicates an increase in apoptotic cells.
On the technique in general: A western blot detects proteins with antibodies after separation by electrophoresis.

A further experiment deals with A549 cells. Description: MTT viability assay of A549 cells, CGEN-CL1 pre-incubated with helix partner. The class given is cell-based, human. The following applies: 150 nM CGEN-CL1 pre-incubated 30 min with equimolar SEQ ID NO:5. How it is done: In order to evaluate whether the two computationally identified α-helices (CGEN-CL1 (SEQ ID NO: 1) and its helix partner (SEQ ID NO: 5)) bind to each other in the Clusterin protein, a co-incubation of the two peptides was analyzed for its ability to eliminate the biological activity of CGEN-CL1.
Pre-incubation for 30 minutes of 150 nM CGEN-CL1 peptide (SEQ ID NO:1) with an equimolar concentration of the helix partner (SEQ ID NO:5) was carried out at room temperature. CGEN-CL1 peptide (SEQ ID NO:1) alone, or the helix partner (SEQ ID NO:5) alone or the pre-incubated CGEN-CL1 peptide (SEQ ID NO:1) with helix partner (SEQ ID NO:5) were used for viability assay of A549 cells, using MTT assay as described in Example 2 herein.

Where a SMILES comes first, the peptide text is derived from it.

For orientation: EC50 means the concentration giving half of the maximal effect. Low values mean an effect from little substance, high ones a need for much substance. In the case of `CC[C@H](C)[C@H](NC(=O)[C@H](CCCNC(=N)N)NC(=O)[C@H](CC(=O)O)NC(=O)CNC(=O)[C@H](CC(N)=O)NC(=O)[C@H](CCSC)NC(=O)[C@H](Cc1c[nH]c2ccccc12)NC(=O)[C@H](Cc1ccccc1)NC(=O)[C@H](Cc1ccc(O)cc1)NC(=O)[C@H](Cc1ccccc1)NC(C)=O)C(=O)N[C@@H](CC(=O)O)C(=O)N[C@@H](CO)C(=O)N[C@@H](CC(C)C)C(=O)N[C@@H](CC(C)C)C(=O)N[C@@H](CCC(=O)O)C(=O)N[C@@H](CC(N)=O)C(=O)N[C@@H](CC(=O)O)C(=O)N[C@@H](CCCNC(=N)N)C(=O)N[C@@H](CCC(N)=O)C(=O)N[C@@H](CCC(N)=O)C(=O)N[C@H](C(N)=O)[C@@H](C)O` [CGEN-CL1] (Ac-FYFWMNGDRIDSLLENDRQQT-NH2), the “growth inhibition as revealed by cellular viability” value (with SK-MEL melanoma cells; in experiment [1]) was “evoked growth inhibition” throughout. Further, the “CGEN-CL1 concentration that sensitized cells to paclitaxel at sub-minimal doses (as little as)” value in experiment [2] stood at 7 nM. Further, the growth inhibition result in experiment [2] (60 nM CGEN-CL1 combined with 5 nM paclitaxel) is recorded as “same growth inhibition rates as the growth inhibition achieved by 45 nM of paclitaxel alone”. For the same compound, the “growth inhibition relative to 45 nM of paclitaxel alone” value in experiment [2] (60 nM CGEN-CL1 combined with 45 nM paclitaxel) amounted to 1.5 fold. Further, the “effect between CGEN-CL1 and paclitaxel” value in experiment [2] (CGEN-CL1 at different concentrations with different doses of paclitaxel) was “synergistic effect”. The “concentration evoking the maximal effect (as little as)” value with PC3 cells was 15 nM. This compound also yielded an EC50 in experiment [3] of 0.95 nM. Further, the “CGEN-CL1 concentration that sensitizes cells to sub-minimal concentrations of paclitaxel (as little as)” value in experiment [4] was 1 nM. Also, in experiment [4] (CGEN-CL1 + paclitaxel), the “maximal effect (inhibition) in combination with paclitaxel” value amounted to 73%. Moreover, in experiment [4] (single agent), the “maximal effect (inhibition) alone” value turned out to be 48%. For the same compound, the “amount of cleaved PARP” value in experiment [5] (PC3 cells treated with Paclitaxel plus CGEN-CL1, 48 hours) is “dramatically enhanced the amount of cleaved PARP”; in experiment [5] (PC3 cells, CGEN-CL1 alone, 48 hours), “caused an enhancement in the amount of cleaved PARP”; in experiment [5] (PC3 cells, CGEN-CL1 alone, 72 hours, administration at time zero and after 48 hours) it was “significant increase in cleaved PARP”. For the same compound, the “biological effect (growth inhibition) of CGEN-CL1 in the presence of partner helix peptide” value with A549 cells is “abolished”.

The record behind these values is US8575107B2, “Clusterin derived peptide” (Compugen Ltd., priority 2008, dated 2013).
